Holding throughout (assay type): biochemical
The target of one experiment is T1, human SIRT1 (Homo sapiens, UniProt Q96EB6).
T1 construct: purchased Reaction Biology Corporation (Malvern, USA), contract assay
T1 sequence (Q96EB6 1-747): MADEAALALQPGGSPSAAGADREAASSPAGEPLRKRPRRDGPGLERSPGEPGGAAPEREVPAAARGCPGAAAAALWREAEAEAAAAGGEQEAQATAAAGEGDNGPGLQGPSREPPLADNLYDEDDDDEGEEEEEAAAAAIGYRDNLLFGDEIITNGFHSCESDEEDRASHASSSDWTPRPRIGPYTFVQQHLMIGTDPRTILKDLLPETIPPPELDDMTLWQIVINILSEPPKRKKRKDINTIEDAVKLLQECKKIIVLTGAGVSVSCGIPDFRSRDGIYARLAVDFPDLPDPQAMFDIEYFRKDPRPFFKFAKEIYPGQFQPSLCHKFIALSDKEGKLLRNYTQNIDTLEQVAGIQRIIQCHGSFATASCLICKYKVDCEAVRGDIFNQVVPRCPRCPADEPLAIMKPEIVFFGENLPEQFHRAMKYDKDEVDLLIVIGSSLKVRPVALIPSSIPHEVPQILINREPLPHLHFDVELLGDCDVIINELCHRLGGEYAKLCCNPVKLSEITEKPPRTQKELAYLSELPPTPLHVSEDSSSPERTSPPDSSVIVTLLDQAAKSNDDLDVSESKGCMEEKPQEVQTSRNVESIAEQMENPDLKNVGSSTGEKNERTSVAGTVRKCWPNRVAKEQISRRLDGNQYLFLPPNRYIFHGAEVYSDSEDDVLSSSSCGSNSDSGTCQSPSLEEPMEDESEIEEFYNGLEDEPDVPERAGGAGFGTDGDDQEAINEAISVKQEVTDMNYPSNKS
The experiment is described as follows: Fluorescence-based sirtuin subtype selectivity assay, SIRT1, single dose 50 μM. Particulars: 50 μM compound; mean, n = 2. The protocol: (§1) IC50 values against SIRT2 are given as mean with standard deviations (n = 3). Inhibition percentages at 50 μM for SIRT1, 3 and 5 are given as mean without standard deviations (n = 2)
(§2) The determination of subtype selectivity against SIRT1, 3 and 5 was performed by measuring the residual enzyme activity after treatment with the corresponding inhibitor at a fixed concentration of 50 μM and subsequent calculation of the percentage inhibition.
(§3) The determination of inhibitory activity on the corresponding sirtuin enzymes was carried out based on a fluorescence-based assay commissioned by Reaction Biology Corporation (Malvern, USA) following an internal experimental protocol. Test substances were prepared in DMSO, delivered into the respective enzyme mixture (prepared with reaction buffer: Tris-HCl, pH = 8) and incubated for 10 minutes at 30 °C. Subsequently the substrate mixture (NAD^+ and a 7-amino-4-methylcoumarin-based fluorogenic peptide substrate) was added to initiate the deacetylation reaction. After 2 hours incubation at 30 °C, 2 mM nicotinamide (universal sirtuin inhibitor, to stop the reaction) and protease-based developer (to generate fluorescence by the cleavage of 7-amino-4-methylcoumarin) was added. At 30 °C 1 hour later, the respective fluorescence was measured (extinction/emission = 360 nm/460 nm). The inhibitory effect of the test compounds is indirectly proportional to the amount of converted fluorescent substrate standardized as 100% activity of the control without inhibitor. The test substances were tested in 10-dose IC50 triplicate mode, with 3-fold serial dilution starting at 50 μM final reaction concentration and if necessary, starting at 100 μM. For each serially diluted replicate of the triplicate, an IC50 value was determined by sigmoidal curve fitting, resulting in three IC50 values, from which the mean and corresponding standard deviation were subsequently calculated. Data processing was performed based on Prism 8.0.2 software (GraphPad Software, Boston, USA). Subtype selectivity on SIRT1, SIRT3 and SIRT5 was evaluated in a single dose duplicate mode at 50 μM final test compound concentration according to previous outlined internal protocol of Reaction Biology Corporation by determining the enzyme activity of the respective sirtuins in % (no inhibitor control as 100% activity).

A further experiment deals with T2, human SIRT3 (Homo sapiens, UniProt Q9NTG7).
T2 construct: purchased Reaction Biology Corporation (Malvern, USA), contract assay
T2 sequence (Q9NTG7 1-399): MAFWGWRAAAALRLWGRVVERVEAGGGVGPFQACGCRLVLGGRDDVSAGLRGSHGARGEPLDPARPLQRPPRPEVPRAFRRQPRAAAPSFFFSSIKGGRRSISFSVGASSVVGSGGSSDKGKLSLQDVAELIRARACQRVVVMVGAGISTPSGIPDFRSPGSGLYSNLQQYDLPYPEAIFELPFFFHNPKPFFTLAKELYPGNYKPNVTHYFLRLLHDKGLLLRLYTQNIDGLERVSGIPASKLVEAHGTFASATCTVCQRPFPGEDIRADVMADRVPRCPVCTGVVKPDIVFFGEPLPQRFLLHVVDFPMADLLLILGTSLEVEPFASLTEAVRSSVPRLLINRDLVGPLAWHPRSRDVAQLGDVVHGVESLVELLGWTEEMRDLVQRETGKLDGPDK
The experiment is described as follows: Fluorescence-based sirtuin subtype selectivity assay, SIRT3, single dose 50 μM. Conditions: 50 μM compound; mean, n = 2. The protocol: as §1, §2, §3

The target in another experiment is T3, human SIRT5 (Homo sapiens, UniProt Q9NXA8).
T3 construct: purchased Reaction Biology Corporation (Malvern, USA), contract assay
T3 sequence (Q9NXA8 37-310): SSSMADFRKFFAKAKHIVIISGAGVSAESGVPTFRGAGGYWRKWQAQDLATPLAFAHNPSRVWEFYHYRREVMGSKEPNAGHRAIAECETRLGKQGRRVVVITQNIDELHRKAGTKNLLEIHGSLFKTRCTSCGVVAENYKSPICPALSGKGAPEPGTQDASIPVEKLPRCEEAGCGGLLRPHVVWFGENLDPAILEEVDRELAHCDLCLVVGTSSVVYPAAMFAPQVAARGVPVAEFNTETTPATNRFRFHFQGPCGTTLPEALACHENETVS
The experiment is described as follows: Fluorescence-based sirtuin subtype selectivity assay, SIRT5, single dose 50 μM. Particulars: 50 μM compound; mean, n = 2. As to the method:
as §1, §2, §3

In a further experiment the target is T4, SIRT2 (Homo sapiens, UniProt Q8IXJ6).
T4 sequence (Q8IXJ6 1-389): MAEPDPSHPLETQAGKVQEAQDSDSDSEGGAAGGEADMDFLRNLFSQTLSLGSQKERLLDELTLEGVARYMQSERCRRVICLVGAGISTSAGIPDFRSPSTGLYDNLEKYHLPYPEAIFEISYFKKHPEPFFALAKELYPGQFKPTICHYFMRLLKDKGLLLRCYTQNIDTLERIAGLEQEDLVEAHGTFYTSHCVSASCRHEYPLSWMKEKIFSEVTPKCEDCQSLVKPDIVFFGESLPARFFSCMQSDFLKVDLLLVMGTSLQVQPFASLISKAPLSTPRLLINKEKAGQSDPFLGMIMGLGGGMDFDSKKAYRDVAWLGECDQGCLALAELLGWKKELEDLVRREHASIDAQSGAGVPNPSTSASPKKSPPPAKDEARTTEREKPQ
Nature of the experiment: Fluorescence-based SIRT2 deacetylation inhibition assay (Reaction Biology Corporation). Particulars: for IC50: fluorogenic peptide of p53 residues 379–382 (RHKK(Ac)-Fl), mean with standard deviation, n = 3. Further details: purchased Reaction Biology Corporation (Malvern, USA), contract assay. The protocol:
The determination of SIRT2 inhibitory activity was performed by Reaction Biology Corporation (Malvern, USA) with a fluorescence-based assay utilizing the fluorogenic peptide of p53 residues 379–382 (RHKK(Ac)-Fl). […]. […] […]. On the contrary, we observed a significant increase in potency by the introduction of halogens at the R^2 position (compounds 29–31), highlighting the importance of the position of the functional group modifications. […]. […] Additional factors such as the atomic radius and thus steric requirements of these halogens may also play a significant role in the increase in potency, where the smaller chlorine atom may experience less steric effects upon binding at the active site compared to the larger bromine and iodine atoms. […]. […] IC50 values against SIRT2 are given as mean with standard deviations (n = 3). Inhibition percentages at 50 μM for SIRT1, 3 and 5 are given as mean without standard deviations (n = 2)
as §3

Usually inhibition stands for how much of the control response was suppressed. The IC50 is the point on the concentration scale where inhibition reaches its midpoint. A higher IC50 goes with weaker potency in that assay. On to `Cc1cc(C)nc(SCC(=O)Nc2cccc(COc3ccc(NC(=O)c4cnn(C)c4)cc3Br)c2)n1` [Compound 11, N-(3-Bromo-4-((3-(2-((4,6-dimethylpyrimidin-2-yl)thio)acetamido)benzyl)oxy)phenyl)-1-methyl-1H-pyrazole-4-carboxamide], for which, at human SIRT1, the “Inhibition of SIRT1 in %@50 μM” value was “n.i”. Besides, the inhibition at 50 µM was 24% at human SIRT3 and 13% at human SIRT5. The compound further displayed an IC50 against SIRT2 of 81 ± 10 nM.
As to `Cc1cc(C)nc(SCC(=O)Nc2cccc(COc3ccc(NC(=O)c4cnn(C)c4)cc3C=O)c2)n1` [Compound 12, N-(4-((3-(2-((4,6-Dimethylpyrimidin-2-yl)thio)acetamido)benzyl)oxy)-3-formylphenyl)-1-methyl-1H-pyrazole-4-carboxamide], the inhibition at 50 µM on human SIRT1 worked out at 2%; on human SIRT3 it was 24%; at human SIRT5, 16%. Moreover, on SIRT2, the 50% inhibitory concentration (IC50) came to 147 ± 13 nM.
The matching figures for `Cc1cc(C)nc(SCC(=O)Nc2cccc(COc3ccc(NC(=O)c4cnn(C)c4)cc3B(O)O)c2)n1` [Compound 13, (2-((3-(2-((4,6-Dimethylpyrimidin-2-yl)thio)acetamido)benzyl)oxy)-5-(1-methyl-1H-pyrazole-4-carboxamido)phenyl)boronic acid]: 29%, 5%, 10% and 294 ± 17 nM.
For the compound `Cc1cc(C)nc(SCC(=O)Nc2cccc(COc3ccc(NC(=O)c4cnn(C)c4)cc3C#N)c2)n1` [Compound 14, N-(3-Cyano-4-((3-(2-((4,6-dimethylpyrimidin-2-yl)thio)acetamido)benzyl)oxy)phenyl)-1-methyl-1H-pyrazole-4-carboxamide], the figures for the inhibition at 50 µM on human SIRT1, at human SIRT3 and at human SIRT5 were 6%, 35% and 2%, respectively. The compound further had an IC50 against SIRT2 of 125 ± 18 nM.
On to `Cc1cc(C)nc(SCC(=O)Nc2cccc(COc3ccc(NC(=O)c4cnn(C)c4)c(Br)c3)c2)n1` [Compound 30, N-(2-Bromo-4-((3-(2-((4,6-dimethylpyrimidin-2-yl)thio)acetamido)benzyl)oxy)phenyl)-1-methyl-1H-pyrazole-4-carboxamide], for which the inhibition at 50 µM stood at 4% at human SIRT1, 43% at human SIRT3 and 1% at human SIRT5. It took 54 ± 7 nM to reach half-maximal inhibition against SIRT2 (IC50).
In the case of `Cc1cc(C)nc(SCC(=O)Nc2cccc(COc3ccc(NC(=O)c4cnn(C)c4)c(I)c3)c2)n1` [Compound 31, N-(4-((3-(2-((4,6-Dimethylpyrimidin-2-yl)thio)acetamido)benzyl)oxy)-2-iodophenyl)-1-methyl-1H-pyrazole-4-carboxamide], the values for the inhibition at 50 µM at human SIRT1, at human SIRT3 and on human SIRT5 were 5%, 22% and 12%, respectively. On SIRT2, this compound had an IC50 of 29 ± 2 nM.
On to `Cc1cc(C)nc(SCC(=O)Nc2cccc(COc3ccc(NC(=O)c4cnn(C)c4)c(C=O)c3)c2)n1` [Compound 32, N-(4-((3-(2-((4,6-Dimethylpyrimidin-2-yl)thio)acetamido)benzyl)oxy)-2-formylphenyl)-1-methyl-1H-pyrazole-4-carboxamide], for which, at human SIRT1, the “Inhibition of SIRT1 in %@50 μM” value is recorded as “n.i”. Further, the inhibition at 50 µM at human SIRT3 turned out to be 7%; at human SIRT5, 6%. Moreover, the IC50 against SIRT2 was 184 ± 9 nM.
Regarding `Cc1cc(C)nc(SCC(=O)Nc2cccc(COc3ccc(NC(=O)c4cnn(C)c4)c(B(O)O)c3)c2)n1` [Compound 33, (5-((3-(2-((4,6-Dimethylpyrimidin-2-yl)thio)acetamido)benzyl)oxy)-2-(1-methyl-1H-pyrazole-4-carboxamido)phenyl)boronic acid], the inhibition at 50 µM was determined as 71% at human SIRT1, 24% at human SIRT3 and 14% on human SIRT5. In addition, half-maximal inhibition on SIRT2 (IC50) was put at 202 ± 6 nM.
In the same order, the values of `Cc1cc(C)nc(SCC(=O)Nc2cccc(COc3ccc(NC(=O)c4cnn(C)c4)c(C#N)c3)c2)n1` [Compound 34, N-(2-Cyano-4-((3-(2-((4,6-dimethylpyrimidin-2-yl)thio)acetamido)benzyl)oxy)phenyl)-1-methyl-1H-pyrazole-4-carboxamide] are 23%, 31%, 4% and 91 ± 7 nM.
Turning to `Cc1cc(C)nc(SCC(=O)Nc2ncc(Cc3cccc4ccc(C#N)cc34)s2)n1` [Compound 46, N-(5-((7-Cyanonaphthalen-1-yl)methyl)thiazol-2-yl)-2-((4,6-dimethylpyrimidin-2-yl)thio)acetamide], the inhibition at 50 µM came to 6% on human SIRT1, 9% at human SIRT3 and 8% on human SIRT5. Besides, the “Fold increase in SIRT2 potency compared to lead structure” value at SIRT2 (29 vs 24a, 46 vs SirReal2) is 2 fold. Further, inhibition at SIRT2 was half-maximal at 122 ± 8 nM (IC50).

These data come from paper PMC12412615, “Tailored SirReal-type inhibitors enhance SIRT2 inhibition through ligand stabilization and disruption of NAD^+ co-factor binding” (RSC Medicinal Chemistry, 2025).
